Our source for the melting point, MIC and IC50 values is patent US9440913B2, “Dihydroxybenzene derivatives and antiprotozoal agent comprising same as active ingredient” (NAI INC., priority 2010, dated 2016).

The subject of one series is T. b. rhodesiense IL1501. Put plainly: Antiprotozoal effect, MIC measurement in HMI-9 culture. The series is classed as cell-based. The settings on record: bloodstream forms, 18 + 6 hours culture. As for the experimental part:
T. b. rhodesiense IL1501, the human infectious protozoan that causes acute symptoms, was used as a Trypanosomatid protozoan. The bloodstream forms of protozoan can be cultured in a HMI-9 culture medium (Hirumi, 1989). The protozoan was always cultured at a temperature of 37° C. in the presence of 5% CO2.
In a microtiter plate (96-well, FALCON 3072), HMI-9 culture medium and HMI-9 culture medium plus glycerol added to make a final concentration of 8.33 mM are separately prepared. 89 μL of the preparation are put into only the first well, and a 60 μL aliquot of each the other wells. 1 μL of a solution of AF or a AF derivative dissolved in DMSO was added to the first well, and was then suspended. A 30 μL aliquot of the suspension was then collected, was transferred to the second well, and was suspended. These operations were repeated in this order to prepare a three-fold dilution series of drug. A 40 μL aliquot of a protozoan culture was added to each well to make a final concentration of 5×10^4 cells/well (a final concentration of glycerol of 5 mM) followed by 18-hours culturing under conditions of 37° C. and 5% CO2. (For EC50 measurement, a 10 μL aliquot of Alamar Blue was added to each well), culturing was carried out under the same conditions for 6 more hours, surviving protozoans were visually observed with a microscope. The concentration at which no motile surviving protozoan was observed was defined as MIC.

Series [1] deals with T1, recombinant Trypanosome AOX (TAO) enzyme (Trypanosoma brucei brucei, UniProt Q26710).
T1 construct: made in house; host or cells: Escherichia coli (membrane fraction)
Put plainly: TAO enzyme inhibition (quinol oxidase activity, ubiquinol-1 substrate). The series is classed as biochemical, T. brucei brucei. To be noted: TAO-expressing E. coli membrane fraction, 25° C., ubiquinol-1, absorbance at 278 nm. The method, then:
Escherichia coli membrane fractions that express TAO by a plasmid harboring TAO cDNA cloned from T. brucei brucei (Fukai, Comparative Biochemistry & Physiology, 124, 141-148, 1999) were used as a recombinant Trypanosome AOX (TAO) enzyme. 50 mM Tris-HCl (pH 7.5), TAO-expressing membrane fraction (0.35 ng), and […] of an inhibitor were mixed in a 1 mL cuvette, and the mixture was incubated at 25° C. for 4 minutes. Ubiquinol-1 as a substrate was then added to the mixture to initiated the reaction, and change in absorbance at 278 nm was monitored (Shimadzu UV-3000, molar absorption coefficient ε=15 cm^−1 mM^−1).

[2] abbreviates: Trypanosoma brucei, RHODESIENSE, 24 h, Glycerol (+), final concentration of glycerol of 5 mM.
Setting [3] is: Trypanosoma brucei, RHODESIENSE, 24 h, Glycerol (−).

Molecules are shown by their SMILES.

T1 sequence (Q26710 whole entry): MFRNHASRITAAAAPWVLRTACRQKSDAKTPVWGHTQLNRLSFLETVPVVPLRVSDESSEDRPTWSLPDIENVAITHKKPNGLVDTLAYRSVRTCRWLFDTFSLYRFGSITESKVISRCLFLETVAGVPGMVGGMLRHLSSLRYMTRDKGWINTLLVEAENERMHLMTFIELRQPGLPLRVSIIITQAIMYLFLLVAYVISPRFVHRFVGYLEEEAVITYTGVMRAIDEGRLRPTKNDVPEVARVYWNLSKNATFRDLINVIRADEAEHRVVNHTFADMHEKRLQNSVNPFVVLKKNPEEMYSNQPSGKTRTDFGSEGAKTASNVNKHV

Molecule `COC(=O)c1cc(Cl)c(O)c(C/C=C(\C)CCC=C(C)C)c1O` registered a melting point of 71 °C.

Take `COC(=O)c1c(C)cc(O)c(C/C=C(\C)CCC=C(C)C)c1O` [Compound 146, Methyl (E)-3-(3,7-Dimethyl-2,6-octadienyl)-2,4-dihydroxy-6-methylbenzoate]: the melting point was in the range of 46 to 47 °C.

As to `CC(=O)c1c(C)c(Cl)c(O)c(CCCCCCCOC(=O)C(C)(C)C)c1O` [Compound 172-11-OPiv, 7-(3-Acetyl-5-chloro-2,6-dihydroxy-4-methylphenyl)heptyl pivalate], the MIC in the series with T. b. rhodesiense IL1501 (setting [2]) was 19 nM; with T. b. rhodesiense IL1501 (setting [3]), 540 nM. In series [1], the IC50 was 8 nM.

Consider `CC(=O)c1c(C)c(Cl)c(O)c(C/C=C(\C)CC/C=C(\C)COC(=O)C(C)(C)C)c1O` [Compound 175-12-OPiv, (2E,6E)-8-(5-Acetyl-3-chloro-2,6-dihydroxy-4-methylphenyl)-2,6-dimethyl-2,6-octadienyl pivalate], for which the MIC in the series with T. b. rhodesiense IL1501 (setting [2]) was determined as 1.4 nM; with T. b. rhodesiense IL1501 (setting [3]), 10 nM. Moreover, the IC50 in series [1] was found to be 0.7 nM.

Take `Cc1c(Cl)c(O)c(/C=C/CCCCCOC(=O)C(C)(C)C)c(O)c1C=O` [Compound 200-11-OPiv, (E)-7-(3-Chloro-5-formyl-2,6-dihydroxy-4-methylphenyl)-6-heptenyl pivalate]: the MIC in the series on T. b. rhodesiense IL1501 (setting [2]) was 0.8 nM; with T. b. rhodesiense IL1501 (setting [3]), 22 nM. Besides, in series [1], the IC50 amounted to 0.53 nM.

Regarding `COC(=O)CCCCCCC/C=C/c1c(O)c(Cl)c(C)c(C=O)c1O` [Compound 200-12-COOMe, (E)-Methyl 10-(3-chloro-5-formyl-2,6-dihydroxy-4-methylphenyl)-10-decenoate], the MIC with T. b. rhodesiense IL1501 (setting [2]) amounted to 33 nM; in the series on T. b. rhodesiense IL1501 (setting [3]) it was 120 nM. Further, the IC50 in series [1] turned out to be 0.5 nM.

As to `Cc1c(Cl)c(O)c(/C=C/CCCCCCOC(=O)C(C)C)c(O)c1C=O` [Compound 200-12-OCOiPr, (E)-8-(3-Chloro-5-formyl-2,6-dihydroxy-4-methylphenyl)-7-octenyl isobutylate], the IC50 in series [1] was found to be 0.75 nM.

Take `CC(=O)c1c(C)c(Cl)c(O)c(C/C=C(\C)CC/C=C(\C)C2CC(=O)C(C)(C)O2)c1O` (stereo not drawn) [Compound 214, 5-Chloro-2,4-dihydroxy-6-methyl-3-[(2E,6E)-7-(5,5-dimethyl-4-oxotetrahydrohuran-2-yl)-3,7-dimethyl-2,6-heptadienyl]acetophenone]: the IC50 in series [1] was found to be 0.3 nM.

As for `CCOC(=O)CCCCCCCc1c(O)c(Cl)c(C)c(C=O)c1O` [Compound 215-11-COOEt, Ethyl 8-(3-chloro-5-formyl-2,6-dihydroxy-4-methylphenyl)octanoate], the MIC in the series with T. b. rhodesiense IL1501 (setting [2]) worked out at 8.5 nM; in the series on T. b. rhodesiense IL1501 (setting [3]), 48 nM. The IC50 in series [1] is 0.5 nM.

In the case of `Cc1c(Cl)c(O)c(CCCCCCCCCC(=O)C(C)(C)C)c(O)c1C=O` [Compound 215-12-Piv, 3-Chloro-4,6-dihydroxy-5-(11,11-dimethyl-10-oxo-dodecyl)-2-methylbenzaldehyde], in series [1], the IC50 was 0.4 nM.

In the case of `CCOC(=O)CCCCCCCCCc1c(O)c(Cl)c(C)c(C=O)c1O` [Compound 215-13-COOEt, Ethyl 10-(3-chloro-5-formyl-2,6-dihydroxy-4-methylphenyl)decanoate], the MIC came to 2 nM in the series on T. b. rhodesiense IL1501 (setting [2]) and 24 nM with T. b. rhodesiense IL1501 (setting [3]). Moreover, the 50% inhibitory concentration (IC50) in series [1] was determined as 0.2 nM.

On to `Cc1c(Cl)c(O)c(CCCCCCCCCOC(=O)C(C)C)c(O)c1C=O` [Compound 215-13-OCOiPr, 9-(3-Chloro-5-formyl-2,6-dihydroxy-4-methylphenyl)nonyl isobutylate], for which, in series [1], the IC50 turned out to be 0.3 nM.

With `COC(C)(C)CCC/C(C)=C/Cc1c(O)c(Cl)c(C)c(C=O)c1O` [Compound 231-9-OMe, 3-Chloro-4,6-dihydroxy-5-[(E)-7-methoxy-3,7-dimethyl-2-octeny]-2-methylbenzaldehyde], the IC50 in series [1] was determined as 0.29 nM.

In the case of `C/C(=C\Cc1c(O)c(Cl)c(C)c(C=O)c1O)CC/C=C(\C)COC1CCCCO1` (stereo not drawn) [Compound 236-13-OTHP, 3-Chloro-5-[(2E,6E)-3,7-dimethyl-8-(tetrahydropyran-2-yloxy)-2,6-octadienyl]-4,6-dihydroxy-2-methylbenzaldehyde], the IC50 in series [1] came out at 0.2 nM.

For the molecule `Cc1c(Cl)c(O)c(/C=C/CCCCCC2CC(=O)C(C)(C)O2)c(O)c1C=O` (stereo not drawn) [Compound 249, 3-Chloro-4,6-dihydroxy-2-methyl-5-[(E)-7-(5,5-dimethyl-4-oxo-tetrahydrofuran-2-yl)-1-heptenyl]benzaldehyde], the MIC turned out to be 18 nM in the series with T. b. rhodesiense IL1501 (setting [2]) and 74 nM in the series with T. b. rhodesiense IL1501 (setting [3]). Further, the IC50 in series [1] was found to be 1 nM.

`CCCCC/C(C)=C/Cc1c(O)c(Cl)c(C)c(C=O)c1O` [Compound 264-8, (E)-3-Chloro-4,6-dihydroxy-2-methyl-5-(3-methyl-2-octenyl)benzaldehyde]: the MIC in the series on T. b. rhodesiense IL1501 (setting [2]) came out at 0.002 nM; with T. b. rhodesiense IL1501 (setting [3]) it was 0.18 nM. In series [1], the IC50 amounted to 0.06 nM.

With `C/C(=C\Cc1c(O)c(Cl)c(C)c(C=O)c1O)CCCCOC(=O)C(C)(C)C` [Compound 264-11-OPiv, (5E)-7-(3-Chloro-5-formyl-2,6-dihydroxy-4-methylphenyl)-5-methyl-5-heptenyl pivalate], the IC50 in series [1] was 0.22 nM.

As to `CCCCCC(C)CCc1c(O)c(Cl)c(C)c(C(C)=O)c1O` (stereo not drawn) [Compound 269-8, 3-Chloro-4,6-dihydroxy-2-methyl-5-(3-methyloctyl)acetophenone], the MIC in the series on T. b. rhodesiense IL1501 (Glycerol (+), final concentration of glycerol of 5 mM) came to 70 nM; with T. b. rhodesiense IL1501 (Glycerol (−)), 500 nM. Also, the half-inhibitory concentration (IC50) in series [1] was found to be 2.5 nM.

On to `CCCCC/C(C)=C/COc1cc(O)c(C(C)=O)c(C)c1Cl` [Compound 270-8, (E)-3-Chloro-6-hydroxy-2-methyl-(3-methyl-2-octenoxy)acetophenone], for which the MIC was 3700 nM with T. b. rhodesiense IL1501 (setting [2]) and 9200 nM in the series with T. b. rhodesiense IL1501 (setting [3]). Further, the IC50 in series [1] turned out to be 300 nM.

Take `C/C(=C\CC/C=C/Cc1c(O)c(Cl)c(C)c(C=O)c1O)COC(=O)C(C)(C)C` [Compound 278-12-OPiv, (2E,6E)-8-(3-Chloro-5-formyl-2,6-dihydroxy-4-methylphenyl)-2-methyl-2,6-octadienyl pivalate]: the IC50 in series [1] was determined as 0.26 nM.

On to `Cc1c(Cl)c(O)c(CCCCCCC(C)COC(=O)C(C)(C)C)c(O)c1C=O` (stereo not drawn) [Compound 279-12-OPiv, 8-(3-Chloro-5-formyl-2,6-dihydroxy-4-methylphenyl)-2-methyloctyl pivalate], for which, in series [1], the IC50 came out at 0.41 nM.

Regarding `CC(=O)c1c(C)c(Cl)c(O)c(C/C=C(\C)CC/C=C(\C)C(C)O)c1O` (stereo not drawn) [Compound 286-9-OH, (2E,6E)-3-Chloro-4,6-dihydroxy-2-methyl-5-(8-hydroxy-3′,7′-dimethyl-2′,6′-nonadienyl)acetophenone], the IC50 in series [1] was found to be 7.1 nM.

Take `C/C(=C\COC(=O)C(C)C)CC/C(C)=C/Cc1c(O)c(Cl)c(C)c(C=O)c1O` [Compound 287-12-OCOiPr, (2E,6E)-8-(3-Chloro-5-formyl-2,6-dihydroxy-4-methylphenyl)-3,6-dimethyl-2,6-octadienyl isobutylate]: in series [1], the IC50 was 0.26 nM.

For the molecule `C/C(=C\COC(=O)C(C)(C)C)CC/C(C)=C/Cc1c(O)c(Cl)c(C)c(C=O)c1O` [Compound 287-12-OPiv, (2E,6E)-8-(3-Chloro-5-formyl-2,6-dihydroxy-4-methylphenyl)-3,6-dimethyl-2,6-octadienyl pivalate], in series [1], the IC50 is 0.36 nM.

As for `Cc1c(Cl)c(O)c(C/C=C/CCCC/C=C/C(=O)C(C)(C)C)c(O)c1C=O` [Compound 288-12-Piv, 3-Chloro-4,6-dihydroxy-5-((E,E)-11,11-dimethyl-10-oxo-2,8-dodecadienyl)-2-methylbenzaldehyde], in series [1], the IC50 stood at 0.74 nM.

Regarding `C/C(=C\Cc1c(O)c(Cl)c(C)c(C=O)c1O)CC/C=C/COC(=O)C(C)(C)C` [Compound 289-12-OPiv, (2E,6E)-8-(3-Chloro-5-formyl-2,6-dihydroxy-4-methylphenyl)-6-methyl-2,6-octadienyl pivalate], in series [1], the IC50 worked out at 0.2 nM.

Take `Cc1c(Cl)c(O)c(CCC(C)CCCCCOC(=O)C(C)(C)C)c(O)c1C=O` (stereo not drawn) [Compound 290-12-OPiv, 8-(3-Chloro-5-formyl-2,6-dihydroxy-4-methylphenyl)-6-methyloctyl pivalate]: the IC50 in series [1] is 0.3 nM.

As to `C/C(=C\Cc1c(O)c(Cl)c(C)c(CO)c1O)CC/C=C(\C)COC(=O)C(C)(C)C` [Compound 503-OPiv, (2E,6E)-8-(3-Chloro-2,6-dihydroxy-5-hydroxymethyl-4-methylphenyl)-2,6-dimethyl-2,6-octadienyl pivalate], the IC50 in series [1] came out at 0.3 nM.
